# Data from US20220089592A1, “IMIDAZO[1,2-A]PYRIDINYL DERIVATIVES AS IRAK4 INHIBITORS” (priority 2019, published 2022).
# Biological target: T1, IRAK4 (Homo sapiens, UniProt Q9NWZ3)
# T1 sequence (Q9NWZ3 1-460): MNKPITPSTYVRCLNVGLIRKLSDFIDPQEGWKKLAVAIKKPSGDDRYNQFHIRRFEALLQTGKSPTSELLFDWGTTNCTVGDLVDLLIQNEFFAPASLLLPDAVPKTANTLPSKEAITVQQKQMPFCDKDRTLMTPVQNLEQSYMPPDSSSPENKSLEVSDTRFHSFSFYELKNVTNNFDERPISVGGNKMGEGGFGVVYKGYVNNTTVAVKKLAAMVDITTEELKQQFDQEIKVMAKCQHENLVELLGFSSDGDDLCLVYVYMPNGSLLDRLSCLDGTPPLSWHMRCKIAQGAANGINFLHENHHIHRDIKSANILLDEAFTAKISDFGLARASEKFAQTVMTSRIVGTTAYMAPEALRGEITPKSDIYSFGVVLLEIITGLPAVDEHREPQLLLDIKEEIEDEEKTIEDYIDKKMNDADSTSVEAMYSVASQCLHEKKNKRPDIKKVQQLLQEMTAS
# Experiment: 2-hour 10 μM ATP Biochemical Assay (MesoScale Detection format; IRAK4 phosphorylation of biotin labeled IRAK1 activation loop peptide)
# Conditions: IRAK4 MSD BIOCHEMICAL (10 μM ATP) IC50 (μM), 1 nM IRAK4, 2 hours
# Protocol: The 2-hour 10 μM ATP Biochemical Assay employs a MesoScale Detection (MSD) format.
# The activity is quenched with 11 μl of 70 mM EDTA, pH 8.
# To detect the phosphorylated biotinylated peptide substrate, 30 μl of the quenched reaction mixture is added to equivalent wells of a 384 well streptavidin coated MesoScale plate (Meso Scale Discovery #L21SA-1). After a 1 hour incubation of the plate for 1 hour at room temperature with gentle mixing, the plate wells are washed 3 times with 50 mM Tris, pH 7.5, 150 mM NaCl, 0.02% Tween-20.
# A 25 μl volume of 1:500 anti-P-Threonine Rabbit polyclonal Antibody plus 1:500 Goat-anti-Rabbit Sulfo Tag Antibody (Meso Scale Discovery R32AB-1) in 50 mM Tris, pH 7.5, 150 mM NaCl, 0.02% Tween-20 plus 2% BSA is then added to each well. After a 1-hour incubation of the plate for 1 hour at room temperature with gentle mixing, the plate wells are washed, 3 times with 50 mM Tris, pH 7.5, 150 mM NaCl, 0.02% Tween-20. A 40 μl volume of 2×MSD Read Buffer (Meso Scale Discovery R92TC-1) is added to each well, and the plate is read immediately in an MSD Plate Reader (Meso Scale Discovery).
row,Compound,IC50 [µM]
1,"CCOc1cc2nc3c(n2cc1NC(=O)c1cccc(C(F)(F)F)n1)CNCC3 [Example 64, N-(7-ethoxy-1,2,3,4-tetrahydroimidazo[1,2-a:5,4-c′]dipyridin-8-yl)-6-(trifluoromethyl)picolinamide]",0.68
2,"CCOc1cc2nc(C3CCN(C)CC3)cn2cc1NC(=O)c1cccc(C(F)(F)F)n1 [Example 67, N-(7-ethoxy-2-(1-methylpiperidin-4-yl)imidazo[1,2-a]pyridin-6-yl)-6-(trifluoromethyl)picolinamide]",0.001
3,"CCOc1cc2nc(C3CC3)cn2cc1NC(=O)c1cccn(CC(F)(F)F)c1=O [Example 70, N-(2-cyclopropyl-7-ethoxyimidazo[1,2-a]pyridin-6-yl)-2-oxo-1-(2,2,2-trifluoroethyl)-1,2-dihydropyridine-3-carboxamide]",0.15
4,"CCOc1cc2nc(C3CC3)cn2cc1NC(=O)c1cccnc1OCC(F)(F)F [Example 71, N-(2-cyclopropyl-7-ethoxyimidazo[1,2-a]pyridin-6-yl)-2-(2,2,2-trifluoroethoxy)nicotinamide]",0.66
5,"CCc1cn2cc(NC(=O)c3cccc(C(F)F)n3)cc(F)c2n1 [Example 76, 6-(difluoromethyl)-N-(2-ethyl-8-fluoroimidazo[1,2-a]pyridin-6-yl)picolinamide]",0.17
6,"O=C(Nc1cnc2nc(C3CC3)cn2c1)c1cccc(C(F)(F)F)n1 [Example 92, N-(2-cyclopropylimidazo[1,2-a]pyrimidin-6-yl)-6-(trifluoromethyl)picolinamide]",0.076
7,"O=C(Nc1cn2cc(C3CC3)nc2cc1OCCN1CCOCC1)c1cccc(C(F)F)n1 [Example 102, N-(2-cyclopropyl-7-(2-morpholinoethoxy)imidazo[1,2-a]pyridin-6-yl)-6-(difluoromethyl)picolinamide]",0.061
8,"O=C(Nc1cc(OCc2ccccc2)c2nc(C3CCOCC3)cn2c1)c1cccc(C(F)(F)F)n1 [Example 103, N-(8-(benzyloxy)-2-(tetrahydro-2H-pyran-4-yl)imidazo[1,2-a]pyridin-6-yl)-6-(trifluoromethyl)picolinamide]",0.023
9,"O=C(Nc1cc(O)c2nc(C3CCOCC3)cn2c1)c1cccc(C(F)(F)F)n1 [Example 104, N-(8-hydroxy-2-(tetrahydro-2H-pyran-4-yl)imidazo[1,2-a]pyridin-6-yl)-6-(trifluoromethyl)picolinamide]",0.13
10,"O=C(Nc1cc(Br)c2nc(C3CCOCC3)cn2c1)c1cccc(C(F)(F)F)n1 [Example 106, N-(8-bromo-2-(tetrahydro-2H-pyran-4-yl)imidazo[1,2-a]pyridin-6-yl)-6-(trifluoromethyl)picolinamide]",0.027
11,"O=C(Nc1cc(C2=CCOCC2)c2nc(C3CCOCC3)cn2c1)c1cccc(C(F)(F)F)n1 [Example 107, N-(8-(3,6-dihydro-2H-pyran-4-yl)-2-(tetrahydro-2H-pyran-4-yl)imidazo[1,2-a]pyridin-6-yl)-6-(trifluoromethyl)picolinamide]",0.084
12,"CCOc1cc2nc(C3CCOC(C)(C)C3)cn2cc1NC(=O)c1cccc(C(F)(F)F)n1 (centres unmarked) [Example 113, N-(2-(2,2-dimethyltetrahydro-2H-pyran-4-yl)-7-ethoxyimidazo[1,2-a]pyridin-6-yl)-6-(trifluoromethyl)picolinamide]",0.001
13,"CCOc1cc2nc([C@H]3C[C@H](OC)C3)cn2cc1NC(=O)c1cccc(C(F)F)n1 [Example 114, 6-(difluoromethyl)-N-(7-ethoxy-2-((1r,3r)-3-methoxycyclobutyl)imidazo[1,2-a]pyridin-6-yl)picolinamide]",0.001
14,"CCOc1cc2nc(C3CC3)cn2cc1NC(=O)c1cccc(OC(F)(F)F)n1 [Example 118, N-(2-cyclopropyl-7-ethoxyimidazo[1,2-a]pyridin-6-yl)-6-(trifluoromethoxy)picolinamide]",0.063
15,"CCOc1cc2nc(C3CC3)cn2cc1NC(=O)c1cncc(C(F)(F)F)n1 [Example 120, N-(2-cyclopropyl-7-ethoxyimidazo[1,2-a]pyridin-6-yl)-6-(trifluoromethyl)pyrazine-2-carboxamide]",0.028
16,"CCOc1cc2nc(CN3CCOCC3)cn2cc1NC(=O)c1cccc(C(F)F)n1 [Example 121, 6-(difluoromethyl)-N-(7-ethoxy-2-(morpholinomethyl)imidazo[1,2-a]pyridin-6-yl)picolinamide]",2.21
17,"CCOc1cc2nc(C(=O)N3CCOCC3)cn2cc1NC(=O)c1cccc(C(F)F)n1 [Example 126, 6-(difluoromethyl)-N-(7-ethoxy-2-(morpholine-4-carbonyl)imidazo[1,2-a]pyridin-6-yl)picolinamide]",0.35
18,"CCOc1cc2nc(C34CC(C(C)(C)O)(C3)C4)cn2cc1NC(=O)c1cccc(C(F)F)n1 [Example 129, 6-(difluoromethyl)-N-(7-ethoxy-2-(3-(2-hydroxypropan-2-yl)bicyclo[1.1.1]pentan-1-yl)imidazo[1,2-a]pyridin-6-yl)picolinamide]",0.001
19,"CCOc1cc2nc(C3CC3)cn2cc1NC(=O)c1cccc(C2(O)CCC2)n1 [Example 132, N-(2-cyclopropyl-7-ethoxyimidazo[1,2-a]pyridin-6-yl)-6-(1-hydroxycyclobutyl)picolinamide]",0.018
20,"CN(C)CCOc1cc2nc(C3CCOCC3)cn2cc1NC(=O)c1cccc(C(F)F)n1 [Example 148, 6-(difluoromethyl)-N-(7-(2-(dimethylamino)ethoxy)-2-(tetrahydro-2H-pyran-4-yl)imidazo[1,2-a]pyridin-6-yl)picolinamide]",0.023
21,"CCOc1cc2nc(CC3CCOC3)cn2cc1NC(=O)c1nc(C)co1 (centres unmarked) [Example 154, N-(7-ethoxy-2-((tetrahydrofuran-3-yl)methyl)imidazo[1,2-a]pyridin-6-yl)-4-methyloxazole-2-carboxamide]",0.22
22,"CCOc1cc2nc(CC3CCOC3)cn2cc1NC(=O)c1cn(C)cn1 (centres unmarked) [Example 157, N-(7-ethoxy-2-((tetrahydrofuran-3-yl)methyl)imidazo[1,2-a]pyridin-6-yl)-1-methyl-1H-imidazole-4-carboxamide]",2.3
23,"CCOc1cc2nc(CC3CCOC3)cn2cc1NC(=O)c1nc(C)no1 (centres unmarked) [Example 158, N-(7-ethoxy-2-((tetrahydrofuran-3-yl)methyl)imidazo[1,2-a]pyridin-6-yl)-3-methyl-1,2,4-oxadiazole-5-carboxamide]",2.9
24,"CC1(COc2cc3nc(C4CCOCC4)cn3cc2NC(=O)c2cnn(C(F)F)c2)COC1 [Example 161, 1-(difluoromethyl)-N-(7-((3-methyloxetan-3-yl)methoxy)-2-(tetrahydro-2H-pyran-4-yl)imidazo[1,2-a]pyridin-6-yl)-1H-pyrazole-4-carboxamide]",0.4
25,"O=C(Nc1cn2cc(C3CCOCC3)nc2cn1)c1cnn(C(F)F)c1 [Example 162, 1-(difluoromethyl)-N-(2-(tetrahydro-2H-pyran-4-yl)imidazo[1,2-a]pyrazin-6-yl)-1H-pyrazole-4-carboxamide]",0.37
26,"CC(C)Oc1cc2nc(C3CCOCC3)cn2cc1NC(=O)c1cccc(C(F)F)n1 [Example 167, 6-(difluoromethyl)-N-(7-isopropoxy-2-(tetrahydro-2H-pyran-4-yl)imidazo[1,2-a]pyridin-6-yl)picolinamide]",0.001
